Results as given in US4526967A, “Benzoquinolizines and use as α2 -adrenoceptor antagonistics” (John Wyeth & Brother Limited, priority 1983, dated 1985).

Columns and labels:
α2 -adrenoceptor = biological target: T1, α2 -adrenoceptor (Rattus norvegicus, UniProt P22909); assay: α2-adrenoceptor antagonistic activity on the rat field stimulated vas deferens preparation (antagonism of clonidine); conditions: for α2 /α1 selectivity: antilog of (α2 pA2 -α1 pA2); for Kb: rat field stimulated vas deferens, agonist clonidine, Schild plot (Arunlakshana & Schild), read-out: pA2 for α2 -adrenoceptor antagonistic activity (converted)
T1 construct: from tissue; host or cells: rat vas deferens (desheathed, field stimulated)
T1 sequence (P22909 1-465): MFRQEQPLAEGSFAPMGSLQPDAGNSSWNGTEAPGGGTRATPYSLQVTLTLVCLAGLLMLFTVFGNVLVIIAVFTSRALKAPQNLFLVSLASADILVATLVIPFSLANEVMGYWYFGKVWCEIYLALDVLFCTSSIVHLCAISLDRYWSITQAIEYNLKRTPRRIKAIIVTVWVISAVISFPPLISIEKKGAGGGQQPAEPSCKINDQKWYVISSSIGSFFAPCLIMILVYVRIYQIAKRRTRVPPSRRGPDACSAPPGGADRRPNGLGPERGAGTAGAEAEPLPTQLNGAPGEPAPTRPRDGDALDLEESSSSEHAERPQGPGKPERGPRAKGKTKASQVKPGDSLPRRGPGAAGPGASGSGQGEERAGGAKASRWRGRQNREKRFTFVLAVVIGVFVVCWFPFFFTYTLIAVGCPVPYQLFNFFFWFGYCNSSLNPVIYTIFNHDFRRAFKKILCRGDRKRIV
Protocol: The compounds of the invention are tested for α2 -adrenoceptor antagonistic activity on the rat field stimulated vas deferens preparation using a modification of the metod of Drew, Eur. J. Pharmac., 1977, 42, 123-130. The procedure is described below.
Desheathed vasa deferentia from sexually mature rats were suspended in a 6 ml organ bath in Krebs solution at 37° and bubbled with 5% CO2 in oxygen. Platinum ring electrodes were positioned above and below the tissue for field stimulation, the stimulus parameters being 0.1 Hz 1 ms pulse width at supramaximal voltage. Twitch responses were recorded isotonically with a 0.5 g loading. Clonidine hydrochloride was used as the α-adrenoceptor agonist and cumulative concentration-response curves were constructed for the inhibition of twitch obtained with clonidine in the range 0.125 to 4 ng ml^-1. After washing out clonidine, the twitch response quickly recovered and an antagonist was then introduced into the Krebs reservoir. Clonidine concentration-response curves were repeated 90 min after introduction of the antagonist. The concentration of clonidine producing 50% inhibition of twitch before and after introduction of antagonist were obtained and the dose-ratio for clonidine was calculated. Various concentrations of the antagonists were used.
Chemother., 1959, 14, 48-58 and the values of pA2 and slope were calculated.

α1 -adrenoceptors = biological target: T2, α1 -adrenoceptors (Rattus norvegicus, UniProt P43140); assay: α1 antagonistic activity on the isolated anococcygeus muscle of the rat (antagonism of phenylephrine or methoxamine); conditions: agonist phenylephrine or methoxamine, Arunlakshana & Schild, read-out: pA2 values for α1 antagonistic activity (converted)
T2 construct: isolated anococcygeus muscle of the rat; from tissue; host or cells: rat anococcygeus muscle (male, 250-360 g)
T2 sequence (P43140 1-466): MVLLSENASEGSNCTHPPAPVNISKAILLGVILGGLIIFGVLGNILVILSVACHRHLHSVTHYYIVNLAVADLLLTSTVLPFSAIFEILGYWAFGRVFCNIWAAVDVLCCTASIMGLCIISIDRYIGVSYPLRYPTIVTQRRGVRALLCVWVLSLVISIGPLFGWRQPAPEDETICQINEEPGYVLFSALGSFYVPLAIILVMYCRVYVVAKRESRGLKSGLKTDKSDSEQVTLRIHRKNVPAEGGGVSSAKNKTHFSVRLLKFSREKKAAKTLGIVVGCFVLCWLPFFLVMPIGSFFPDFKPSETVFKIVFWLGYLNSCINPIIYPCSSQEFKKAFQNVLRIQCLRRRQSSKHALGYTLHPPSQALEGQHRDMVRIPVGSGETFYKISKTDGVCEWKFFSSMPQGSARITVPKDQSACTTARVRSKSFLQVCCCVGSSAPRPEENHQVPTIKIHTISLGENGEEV
Source text: The compounds of the invention generally antagonise the α2 -adrenoceptors to a much greater extent than the α1 -adrenoceptors. The α1 antagonistic activity can be evaluated by a number of different methods. One method involves assessing the activity on the isolated anococcygeus muscle of the rat. The method is based on that of Gillespie, Br.J.Pharmac., 1972, 45, 404-416. In the procedure male rats (250-360 g) are killed by a blow on the head and bled. The two anococcygeus muscles are removed from their position in the midline of the pelvic cavity, where they arise from the upper coccygeal vertebrae. The muscles are suspended in 5 ml organ baths in Krebs solution containing […] ascorbic acid, to prevent drug oxidation. The tissues are gassed with a 95% oxygen, 5% CO2 mixture and maintained at 37°. Longitudinal muscle contractions are recorded using isotonic transducers. Cumulative dose response curves are then obtained to phenylephrine or in some cases methoxamine, both agents being […] alpha adrenoceptor agonists. The concentration range of phenylephrine or methoxamine used is 0.02 to 0.8 μg.ml^-1. The agonist is then washed from the bath and the test drug added to the bathing medium at a concentration of 10^-6 M. After 30 min equilibration with the test drug a further agonist dose response curve is obtained. The washing, equilibration and agonists dosing procedures are then repeated using 10^-5 M and 10^-4 M solutions of the test drug. Estimates of the pA2 value for the test drug as an antagonist of phenylephrine or methoxamine were made from the agonist dose-ratios using the method of Arunlakshana & Schild, Br. J.Pharmac.Chemother., 1959, 14, 48-58.

| SMILES | α2 /α1 selectivity (α2 -adrenoceptor) | Kb (α2 -adrenoceptor) | Kb (α1 -adrenoceptors) |
| --- | --- | --- | --- |
| CCCS(=O)(=O)N(CCNS(C)(=O)=O)[C@H]1CCN2CCc3ccccc3[C@H]2C1 (relative stereo) [Example 12, N-((2β,11bα)-1,3,4,6,7,11b-Hexahydro-2H-benzo[a]quinolizine-2-yl)-N-(2-methanesulphonamidoethyl)-n-propanesulphonamide] | 309 | 5.13 nM | 1580 nM |
| CS(=O)(=O)NCCN([C@H]1CCN2CCc3ccccc3[C@H]2C1)S(=O)(=O)c1ccccc1 (relative stereo) [Example 13, N-((2β,11bα)-1,3,4,6,7,11b-Hexahydro-2H-benzo[a]quinolizin-2-yl)-N-(2-methanesulphonamidoethyl)benzenesulphonamide] | 83 | 7.59 nM | 631 nM |
| CS(=O)(=O)NCCN([C@H]1CCN2CCc3ccccc3[C@H]2C1)S(C)(=O)=O (relative stereo) [Example 2, N-[(2β,11bα)-1,3,4,6,7,11b-Hexahydro-2H-benzo[a]quinolizin-2-yl]-N-(2-methanesulphonamidoethyl)methanesulphonamide] | 407 | 11.7 nM | 4790 nM |
